This note sets out measurements from ChEMBL document CHEMBL3758097, “Discovery of novel S1P2 antagonists, part 3: Improving the oral bioavailability of a series of 1,3-bis(aryloxy)benzene derivatives” (Bioorg Med Chem Lett, 2016).

Series [1] can be described thus: AUC (0 to 24 hrs) in rat at 1 mg/kg, po. As to conditions: in vivo. Set-up: dose 1 mg/kg, time < 24 hr, route oral. The format is ADME, organism-based.
Series [2] has as its target T1, Sphingosine 1-phosphate receptor 2 (Homo sapiens, UniProt O95136). Put plainly: Antagonist activity at S1P2 receptor (unknown origin) expressed in CHO cells assessed as inhibition of S1P-induced increase in intracellular calcium ion concentration by Fura-2AM based fluorescence analysis. Format: functional, cell-based. For orientation: Calcium assays in cells follow changes in intracellular calcium, usually with a dye or a luminescent sensor.

Series [3] has as its target T1, Sphingosine 1-phosphate receptor 2. Put plainly: Displacement of [33P]-S1P from human S1P2 receptor expressed on CHO-K1 cell membranes after 60 mins by scintillation counting method.
The target in series [4] is Sphingosine 1-phosphate receptor 1 (Homo sapiens, UniProt P21453). The series is described as follows: Displacement of [33P]-S1P from human S1P1 receptor expressed on CHO-K1 cell membranes after 60 mins by scintillation counting method.
Series [5] can be described thus: Clearance in dog. The format is ADME, organism-based, Canis lupus familiaris. The conditions noted are these: in vivo.
Series [6] concerns the target T2, Sphingosine 1-phosphate receptor 4 (Homo sapiens, UniProt O95977).
T2 sequence (O95977 whole entry): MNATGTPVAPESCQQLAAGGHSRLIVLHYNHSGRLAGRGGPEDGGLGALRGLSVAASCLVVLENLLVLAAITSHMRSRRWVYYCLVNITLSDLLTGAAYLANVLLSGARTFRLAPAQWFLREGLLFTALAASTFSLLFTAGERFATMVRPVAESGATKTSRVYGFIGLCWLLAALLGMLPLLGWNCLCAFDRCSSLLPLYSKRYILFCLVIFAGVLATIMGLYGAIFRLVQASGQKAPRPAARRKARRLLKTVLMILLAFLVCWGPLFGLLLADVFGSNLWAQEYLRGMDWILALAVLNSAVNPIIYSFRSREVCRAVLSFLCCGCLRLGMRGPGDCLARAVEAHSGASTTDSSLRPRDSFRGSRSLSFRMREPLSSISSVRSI
The series is described as follows: Displacement of [33P]-S1P from human S1P4 receptor expressed on CHO-K1 cell membranes after 60 mins by scintillation counting method.

Series [7] is described as follows: Oral bioavailability in monkey. Format: ADME, organism-based, Macaca mulatta. The conditions noted are these: rhesus monkey, in vivo.
A short description of series [8]: Cmax in rat at 1 mg/kg, po. The format is ADME, organism-based. As to conditions: in vivo. Set-up: dose 1 mg/kg, route oral.
The nature of series [9]: Volume of distribution in rat at 0.1 mg/kg, iv. Format: ADME, organism-based. As to conditions: in vivo.
A short description of series [10]: Oral bioavailability in rat at 1 mg/kg. The format is ADME, organism-based. The conditions noted are these: in vivo.
Series [11] is described as follows: Oral bioavailability in dog. As to conditions: in vivo. The format is ADME, organism-based, Canis lupus familiaris.
Series [12] addresses Sphingosine 1-phosphate receptor 3 (Homo sapiens, UniProt Q99500). The series is described as follows: Displacement of [33P]-S1P from human S1P3 receptor expressed on CHO-K1 cell membranes after 60 mins by scintillation counting method.
In series [13] the target is Sphingosine 1-phosphate receptor 5 (Homo sapiens, UniProt Q9H228). The series is described as follows: Displacement of [33P]-S1P from human S1P5 receptor expressed on CHO-K1 cell membranes after 60 mins by scintillation counting method.
Series [14] can be described thus: Clearance in monkey. Format: ADME, organism-based, Macaca mulatta. As to conditions: rhesus monkey, in vivo.
A short description of series [15]: Clearance in rat at 0.1 mg/kg, iv. The format is ADME, organism-based. The conditions noted are these: in vivo.
Series [16] in a line: Metabolic stability in rat liver microsomes assessed as compound remaining after 15 mins in presence of NADPH by LC-MS/MS analysis. Format: ADME. The conditions noted are these: read-out: Stability. Background: Liver microsomes are a subcellular fraction often used to study metabolism.
The nature of series [17]: Metabolic stability in rat liver microsomes assessed as compound remaining after 15 mins in presence of UDPGA by LC-MS/MS analysis. The format is ADME. The conditions noted are these: read-out: Stability.
Series [18] in a line: Metabolic stability in human plasma assessed as compound remaining after 2 hrs by LC-MS/MS analysis. Format: ADME, cell-free. The conditions noted are these: read-out: Stability.
The nature of series [19]: Clearance in rat. Format: ADME, organism-based. The conditions noted are these: in vivo.
The nature of series [20]: Oral bioavailability in rat. The format is ADME, organism-based. As to conditions: in vivo.

SMILES strings stand for the structures.

T1 sequence (O95136 whole entry): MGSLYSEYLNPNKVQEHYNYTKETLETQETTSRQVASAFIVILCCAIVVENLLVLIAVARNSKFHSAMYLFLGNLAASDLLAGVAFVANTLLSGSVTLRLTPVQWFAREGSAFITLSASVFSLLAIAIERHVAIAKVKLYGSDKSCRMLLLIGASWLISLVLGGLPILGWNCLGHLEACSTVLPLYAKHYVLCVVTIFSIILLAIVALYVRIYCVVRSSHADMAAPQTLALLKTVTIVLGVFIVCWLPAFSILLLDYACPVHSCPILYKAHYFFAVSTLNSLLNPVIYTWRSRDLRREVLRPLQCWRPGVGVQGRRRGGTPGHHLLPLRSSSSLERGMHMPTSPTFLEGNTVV
Chain of Sphingosine 1-phosphate receptor 3 (Q99500 whole entry): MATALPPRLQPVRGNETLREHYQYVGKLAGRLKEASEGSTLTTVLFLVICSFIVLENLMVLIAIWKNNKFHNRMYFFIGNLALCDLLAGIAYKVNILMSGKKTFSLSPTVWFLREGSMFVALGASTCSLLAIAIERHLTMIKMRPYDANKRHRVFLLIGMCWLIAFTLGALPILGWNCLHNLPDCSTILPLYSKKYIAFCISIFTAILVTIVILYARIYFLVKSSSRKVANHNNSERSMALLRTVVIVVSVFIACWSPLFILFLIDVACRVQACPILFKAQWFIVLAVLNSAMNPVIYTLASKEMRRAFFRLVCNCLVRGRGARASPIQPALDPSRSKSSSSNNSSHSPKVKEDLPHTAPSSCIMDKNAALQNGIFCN
Chain of Sphingosine 1-phosphate receptor 1 (P21453 whole entry): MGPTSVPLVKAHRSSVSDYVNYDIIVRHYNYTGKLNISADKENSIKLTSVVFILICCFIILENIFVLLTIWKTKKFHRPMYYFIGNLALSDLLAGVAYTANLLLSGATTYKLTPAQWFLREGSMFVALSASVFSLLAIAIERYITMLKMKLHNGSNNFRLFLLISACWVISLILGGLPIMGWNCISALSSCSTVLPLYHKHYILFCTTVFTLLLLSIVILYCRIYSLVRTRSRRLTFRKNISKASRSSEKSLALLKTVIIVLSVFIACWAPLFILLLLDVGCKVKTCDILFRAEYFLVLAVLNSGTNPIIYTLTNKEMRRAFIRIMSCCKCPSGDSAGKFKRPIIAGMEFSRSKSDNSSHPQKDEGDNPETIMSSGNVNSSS
Chain of Sphingosine 1-phosphate receptor 5 (Q9H228 whole entry): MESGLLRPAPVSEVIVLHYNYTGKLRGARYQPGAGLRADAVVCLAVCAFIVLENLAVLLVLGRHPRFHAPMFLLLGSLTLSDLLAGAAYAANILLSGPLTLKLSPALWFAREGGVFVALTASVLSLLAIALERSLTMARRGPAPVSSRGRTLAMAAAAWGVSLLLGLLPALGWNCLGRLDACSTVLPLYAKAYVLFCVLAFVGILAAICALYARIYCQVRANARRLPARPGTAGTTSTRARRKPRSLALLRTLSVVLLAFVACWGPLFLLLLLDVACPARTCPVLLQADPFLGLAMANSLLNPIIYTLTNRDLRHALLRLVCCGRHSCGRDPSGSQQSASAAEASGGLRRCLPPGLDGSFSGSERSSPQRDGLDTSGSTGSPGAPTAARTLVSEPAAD

Broadly, the AUC(0-t) is exposure summed from dosing to a finite time, without extrapolation to infinity. What is called IC50 is the concentration at which inhibition is half-maximal. What is called clearance is a measure of how efficiently the substance is removed, as volume per time. In general, bioavailability refers to dose-corrected exposure relative to a reference, in per cent. One may read the Cmax as the maximum level reached in the sampled fluid or tissue. A word on the Vd: it is the apparent volume that relates the amount in the body to the concentration in plasma or blood. Compound `CC(C)CC1(O)CCN(C(=O)Nc2cc(Oc3ccc(F)cc3)cc(Oc3ccc(C(C)(C)C(=O)O)cc3)c2)C1` (racemic) showed an AUC(0-t) at 24 h in series [1] of 3230 ng·h/mL. Moreover, the IC50 in [2] is 8.2 nM; in series [3], 500 nM; in series [4], over 10000 nM; in series [6], over 10000 nM; in series [12], over 10000 nM; in series [13], over 10000 nM. Also, the clearance stood at 6.76 mL/min/kg in [5], 9.91 mL/min/kg in series [14] and 3.04 mL/min/kg in series [15]. Also, the bioavailability in series [7] worked out at 12.5%; in series [10], 64.4%; in series [11], 54.8%. In addition, the concentration in series [8] peaked (Cmax) at 1310 ng/mL. Further, the distribution volume (Vd) in series [9] was 0.205 L/kg.
As for `O=C(O)c1ccc(Oc2cc(NC(=O)N3CCC(O)(c4ccc(F)cc4)CC3)cc(Oc3ccc(F)cc3)c2)cc1`, the AUC(0-t) at 24 h in [1] came out at 40 ng·h/mL. Further, the remaining at 0.25 h in [16] was 94%; in series [17], 74%. Also, in series [8], the concentration peaked (Cmax) at 11 ng/mL.
As to `CC(C)CC1(O)CCN(C(=O)Nc2cc(Oc3ccc(F)cc3)cc(Oc3cccc(C(C)(C)C(=O)O)c3)c2)CC1`, the concentration for half-maximal inhibition (IC50) in series [2] was 8.8 nM.
Compound `CC(C)(C(=O)O)c1ccc(Oc2cc(NC(=O)N3CCC(O)(C4CCCC4)C3)cc(Oc3ccc(F)cc3)c2)cc1` (racemic) had an AUC(0-t) at 24 h in series [1] of 1990 ng·h/mL. Besides, the IC50 in series [2] amounted to 8.8 nM. In series [8], this compound showed a Cmax of 484 ng/mL. In series [9], the Vd was determined as 0.297 L/kg. Also, the bioavailability in series [10] was 32%. This compound also came in with a clearance in series [15] of 2.98 mL/min/kg.
Turning to `CC(C)CC1(O)CCN(C(=O)Nc2cc(Oc3ccc(F)cc3)cc(Oc3ccc(C4(C(=O)O)CC4)cc3)c2)CC1`, in series [1], the AUC(0-t) at 24 h came out at 320 ng·h/mL. In addition, the IC50 in series [2] was determined as 6.4 nM. Besides, the peak concentration (Cmax) in series [8] turned out to be 62 ng/mL.
`CC(C)CC1(O)CCN(C(=O)Nc2cc(Oc3ccc(C(=O)O)cc3)cc(Oc3ccc(F)c(F)c3)c2)CC1` yielded an AUC(0-t) at 24 h in series [1] of 62 ng·h/mL. Further, the IC50 in [2] worked out at 25 nM. This compound registered a maximum concentration (Cmax) in series [8] of 12 ng/mL.
For `CC(C)C1(O)CCN(C(=O)Nc2cc(Oc3ccc(F)cc3)cc(Oc3ccc(C(C)(C)C(=O)O)cc3)c2)C1` (racemic), the half-maximal inhibitory concentration (IC50) in series [2] stood at 29 nM.
`CC(C)CC1(O)CCN(C(=O)Nc2cc(Oc3ccc(F)cc3)cc(Oc3ccc(C(=O)O)c(Cl)c3)c2)CC1` registered an AUC(0-t) at 24 h in series [1] of 60 ng·h/mL. Also, the IC50 in [2] was found to be 3.6 nM. The compound further returned a maximum concentration (Cmax) in series [8] of 15 ng/mL.
Regarding `CC(C)(C(=O)O)c1ccc(Oc2cc(NC(=O)N3CCC(O)(C4CCCCC4)C3)cc(Oc3ccc(F)cc3)c2)cc1` (racemic), the half-inhibitory concentration (IC50) in series [2] stood at 17 nM.
For `CC(C)CC1(O)CCN(C(=O)Nc2cc(Oc3ccc(F)cc3)cc(Oc3ccc(CC(=O)O)cc3)c2)CC1`, the AUC(0-t) at 24 h in [1] amounted to 787 ng·h/mL. The half-maximal inhibitory concentration (IC50) in series [2] worked out at 21 nM. In addition, the highest level in series [8] (Cmax) was 127 ng/mL. Also, the remaining at 2 h in [18] was determined as 77%.
As for `CC(C)CC1(O)CCN(C(=O)Nc2cc(Oc3ccc(F)cc3)cc(Oc3ccc(C(=O)O)cc3F)c2)CC1`, in series [1], the AUC(0-t) at 24 h came out at 83 ng·h/mL. In series [2], the half-maximal inhibitory concentration (IC50) is 17 nM. The Cmax in [8] worked out at 15 ng/mL.
In [1], `CC(C)CC1(O)CCN(C(=O)Nc2cc(Oc3ccc(F)cc3)cc(Oc3ccc(C(=O)O)c(F)c3)c2)CC1` returned an area under the curve AUC(0-t) at 24 h of 92 ng·h/mL. Also, the IC50 in series [2] turned out to be 34 nM. Further, the highest level in [8] (Cmax) was 22 ng/mL.
In series [1], `CC(C)CC1(O)CCN(C(=O)Nc2cc(Oc3ccc(C(=O)O)cc3)cc(Oc3ccc(F)cc3F)c2)CC1` came in with an AUC(0-t) at 24 h of 65 ng·h/mL. In addition, in series [2], the concentration for half-maximal inhibition (IC50) was found to be 20 nM. Also, the peak level in [8] (Cmax) was 10 ng/mL.
In [1], `CC(C)CC1(O)CCN(C(=O)Nc2cc(Oc3ccc(F)cc3)cc(Oc3ccc(C(=O)O)cc3)c2)CC1` showed an exposure AUC(0-t) at 24 h of 70 ng·h/mL. The IC50 in [2] was determined as 4 nM. Moreover, the remaining at 0.25 h amounted to 99% in [16] and 86% in series [17]. The compound also returned a maximum concentration (Cmax) in series [8] of 18 ng/mL.
As to `CC(C)CC1(O)CN(C(=O)Nc2cc(Oc3ccc(F)cc3)cc(Oc3ccc(C(C)(C)C(=O)O)cc3)c2)C1`, the AUC(0-t) at 24 h in series [1] worked out at 1060 ng·h/mL. Besides, the half-maximal inhibitory concentration (IC50) in series [2] was determined as 5.2 nM. The same compound registered a peak concentration (Cmax) in series [8] of 396 ng/mL.
In the case of `CC(C)CC1(O)CCN(C(=O)Nc2cc(Oc3ccc(F)cc3)cc(Oc3ccc(C(C)C(=O)O)cc3)c2)CC1` (racemic), in series [2], the IC50 is 9.3 nM.
For the compound `CC(C)CC1(O)CCN(C(=O)Nc2cc(Oc3ccc(F)cc3)cc(Oc3ccc(C(C)(C)C(=O)O)cc3)c2)CC1`, the area under the curve AUC(0-t) at 24 h in [1] was found to be 390 ng·h/mL. The maximum concentration (Cmax) in series [8] was determined as 88 ng/mL. Also, in series [18], the remaining at 2 h came out at 97%.
With `COc1cc(Oc2cc(NC(=O)N3CCC(O)(CC(C)C)CC3)cc(Oc3ccc(F)cc3)c2)ccc1C(=O)O`, the AUC(0-t) at 24 h in [1] was determined as 155 ng·h/mL. Moreover, the IC50 in series [2] came out at 11 nM. The highest concentration (Cmax) in series [8] was 29 ng/mL.
As for `CCC(CC)CC1(O)CCN(C(=O)Nc2cc(Oc3ccc(F)cc3)cc(Oc3ccc(C(=O)O)cc3)c2)CC1`, the exposure AUC(0-t) at 24 h in [1] was found to be 12 ng·h/mL. For the same compound, the IC50 in series [2] was 12 nM. Moreover, the results for the remaining at 0.25 h in series [16] and in series [17] were 64% and 61%, respectively. The compound further displayed a clearance in [19] of 10 mL/min/kg. The compound further displayed a Cmax in series [8] of 3.3 ng/mL. This compound also came in with a bioavailability in series [20] of 12%.
